According to the supplement of paper PMC7695840:
Several values for one entry are separate records, joined by “and”; a condition that tells them apart may be missing. Equal values may be shown once. Where a name gives a salt, the structure may show the parent alone.

Columns and labels:
[1] = test system: Staphylococcus aureus MW2 (mecA+); experiment: IC50 (growth, competition assay); settings: cefoxitin: subinhibitory
Procedure, shortened: (§1)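 Pre-induced, 1:1-mixed fluorescent S. aureus MW2 mecA+ and ΔmecA strains were grown 20 h at 37 °C, 90% humidity, unshaken, in LB with a daily-set subinhibitory cefoxitin dose, in 1536-well plates. Compounds were given on five- or nine-point 2-fold gradients, in two dye-swapped replicates. DsRed (540/590) and GFP (485/520) were scaled per plate between single-strain control medians, with No Treatment then set to 0.5. Per-strain IC50 was the dose halving the No Treatment signal, or the maximal signal.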

[2] = test system: Staphylococcus aureus MW2 delta-mecA (mecA-); experiment: IC50 (growth, competition assay); settings: cefoxitin: subinhibitory
Procedure, shortened: as §1

Compound	IC50 ([1]; fluorescent label: DsRed)	IC50 ([1]; fluorescent label: GFP)	IC50 ([2]; fluorescent label: DsRed)	IC50 ([2]; fluorescent label: GFP)
N[C@@H]1[C@H]2CN(c3nc4c(cc3F)c(=O)c(C(=O)O)cn4-c3ccc(F)cc3F)C[C@@H]12 [Trovafloxacin mesylate]	< 9.85 µM	< 9.85 µM	< 9.85 µM	< 9.85 µM
COc1cccc(OC)c1C(=O)N[C@@H]1C(=O)N2[C@@H]1SC(C)(C)[C@@H]2C(=O)O [STAPHCILLIN]	< 9.85 µM	< 9.85 µM	< 9.85 µM	< 9.85 µM
CCn1cc(C(=O)O)c(=O)c2cc3c(cc21)OCO3 [Oxolinic acid]	18.3 µM	16.1 µM	15.1 µM	14.6 µM
CC(C)N(CCC(=O)c1ccc2ccccc2c1)Cc1ccccc1	< 9.85 µM and 16.8 µM	14.1 µM and 22.4 µM	< 9.85 µM	< 9.85 µM
CC1COc2c(N3CCN(C)CC3)c(F)cc3c(=O)c(C(=O)O)cn1c23 (centres undefined) [FLOXIN]	< 9.85 µM	< 9.85 µM	< 9.85 µM	< 9.85 µM
CN1CCN(CCCN2c3ccccc3Sc3ccc(C(F)(F)F)cc32)CC1 [STELAZINE]	55 µM	55.8 µM	18.1 µM	15.9 µM
CCn1cc(C(=O)O)c(=O)c2cc(F)c(N3CCN(C)CC3)cc21 [PEFLOXACINE MESYLATE]	< 9.85 µM	< 9.85 µM	< 9.85 µM	< 9.85 µM
O=C1C2CC=CCC2C(=O)N1SC(Cl)(Cl)Cl (centres undefined) [CAPTAN]	15.7 µM	18 µM	< 9.85 µM	< 9.85 µM
CCC(Cc1c(I)cc(I)c(N)c1I)C(=O)O (centres undefined) [TELEPAQUE]	10.4 µM	27.5 µM	< 9.85 µM	< 9.85 µM
C[C@@H](O)[C@H]1C(=O)N2C(C(=O)OCOC(=O)C(C)(C)C)=C(SC3CN(C4=NCCS4)C3)[C@H](C)[C@H]12 [Tebipenem pivoxil (L-084)]	1.76 µM	1.77 µM	< 0.498 µM	< 0.498 µM
COC(=O)C1=C(C)NC(C)=C(C(=O)OCC(C)C)C1c1ccccc1[N+](=O)[O-] (centres undefined) [Nisoldipine]	63.1 µM	99.2 µM	12.7 µM	7.55 µM
Cc1ncc(-c2ccnc(Nc3ccc(S(C)(=O)=O)cc3)n2)n1C(C)C [AZD5438]	> 150 µM	> 150 µM	10.3 µM	< 9.85 µM
CCn1cc(C(=O)O)c(=O)c2cc(F)c(N3CCNC(C)C3)c(F)c21 (centres undefined) [Lomefloxacin hydrochloride (Maxaquin)]	1.76 µM	1.78 µM	0.56 µM	< 0.498 µM
Cc1cc(-n2c(=O)[nH]c(=O)n(C)c2=O)ccc1Oc1ccc(SC(F)(F)F)cc1 [BAYCOX]	70.8 µM	113 µM	59.8 µM	32 µM
CO/N=C(\C(=O)N[C@@H]1C(=O)N2C(C(=O)O)=C(CSc3nc(=O)c(O)nn3C)CS[C@H]12)c1csc(N)n1 [ROCEPHIN]	> 150 µM	> 150 µM	< 9.85 µM	< 9.85 µM
C=CC1=C(C(=O)O)N2C(=O)[C@@H](NC(=O)/C(=N\O)c3csc(N)n3)[C@H]2SC1 [OMNICEF]	< 9.85 µM	< 9.85 µM	< 9.85 µM	< 9.85 µM
NCc1ccccc1CC(=O)N[C@@H]1C(=O)N2C(C(=O)O)=C(CSc3nnnn3CC(=O)O)CS[C@H]12 [PRECEF]	53.1 µM	44.7 µM	< 9.85 µM	< 9.85 µM
Clc1ccc(COC(Cn2ccnc2)c2ccc(Cl)cc2Cl)c(Cl)c1 (centres undefined) [MONISTAT]	< 9.85 µM	< 9.85 µM	< 9.85 µM	< 9.85 µM
CCCCC(CC)CN=C(N)N=C(N)NCCCCCCNC(N)=NC(N)=NCC(CC)CCCC (centres undefined) [ALEXIDINE HYDROCHLORIDE]	< 9.85 µM	< 9.85 µM	< 9.85 µM	< 9.85 µM
CC(C)c1nc(CN(C)C(=O)N[C@@H](CCN2CCOCC2)C(=O)N[C@H](CC[C@H](Cc2ccccc2)NC(=O)OCc2cncs2)Cc2ccccc2)cs1 [Cobicistat (GS-9350)]	109 µM	107 µM	29.4 µM	27.6 µM
CCC(=O)Nc1cccc(Oc2nc(Nc3ccc(N4CCN(C)CC4)cc3OC)ncc2Cl)c1 [WZ4003]	> 150 µM	> 150 µM	> 150 µM	> 150 µM

Compound	IC50 ([1]; fluorescent label: DsRed)	IC50 ([1]; fluorescent label: GFP)	IC50 ([2]; fluorescent label: DsRed)	IC50 ([2]; fluorescent label: GFP)
O=C(O)Cc1cc(I)c(Oc2cc(I)c(O)c(I)c2)c(I)c1 [TETRAC]	< 9.85 µM	< 9.85 µM	< 9.85 µM	< 9.85 µM
CCN1CCN(C(=O)N[C@@H](C(=O)N[C@@H]2C(=O)N3C(C(=O)O)=C(CSc4nnnn4C)CS[C@H]23)c2ccc(O)cc2)C(=O)C1=O [CEFOBID]	19.5 µM	24.5 µM	< 9.85 µM	< 9.85 µM
CC(C)c1cc2c(c(O)c1O)[C@@]1(C(=O)O)CCCC(C)(C)[C@@H]1CC2 [CARNOSIC ACID]	27.2 µM	38.8 µM	< 9.85 µM	< 9.85 µM
O=c1[nH]c(=O)n([C@H]2C[C@H](O)[C@@H](CO)O2)cc1F [Floxuridine]	< 0.498 µM	< 0.498 µM	< 0.498 µM	< 0.498 µM
O=C(Nc1ccc([N+](=O)[O-])cc1Cl)c1cc(Cl)ccc1O [Niclosamide]	113 µM	< 9.85 µM	< 9.85 µM	73.8 µM
O=C(O)c1cccnc1Nc1cccc(C(F)(F)F)c1 [Niflumic acid]	18.5 µM	21.4 µM	25.8 µM	32.3 µM
CC[C@H]1OC(=O)C[C@@H](O)[C@H](C)[C@@H](O[C@@H]2O[C@H](C)[C@@H](O)[C@H](N(C)C)[C@H]2O)[C@@H](CCN2C[C@H](C)C[C@H](C)C2)C[C@@H](C)C(=O)/C=C/C(C)=C/[C@@H]1CO[C@@H]1O[C@H](C)[C@@H](O)[C@@H](OC)[C@H]1OC [Tilmicosin]	< 9.85 µM	< 9.85 µM	< 9.85 µM	< 9.85 µM
O=C(O[C@@H]1Cc2c(O)cc(O)cc2O[C@@H]1c1ccc(O)c(O)c1)c1cc(O)c(O)c(O)c1 [EPICATECHIN MONOGALLATE]	83.7 µM	140 µM	22.9 µM	12.2 µM
CCCCC[C@H](CC(=O)NO)C(=O)N[C@H](C(=O)N1CCC[C@H]1CO)C(C)C [Actinonin]	15.6 µM	11 µM	< 9.85 µM	< 9.85 µM
CC(C)(C)c1cc(/C=C(\C#N)C(N)=S)cc(C(C)(C)C)c1O [Tyrphostin AG 879 (AG 879)]	< 9.85 µM	14 µM	< 9.85 µM	< 9.85 µM
Cc1cc(NC2CCCCC2)nc(-n2nc(C)cc2C)n1 [CyPPA]	40 µM	107 µM	18.6 µM	16.9 µM
COc1c(O)cc2oc3cc(O)c(CC=C(C)C)c(O)c3c(=O)c2c1CC=C(C)C [alpha-MANGOSTIN]	< 9.85 µM	< 9.85 µM	< 9.85 µM	< 9.85 µM
CC(=O)N1CCN(c2ccc(OCC3COC(Cn4ccnc4)(c4ccc(Cl)cc4Cl)O3)cc2)CC1 (centres undefined) [KETOZOLE]	112 µM	132 µM	50.6 µM	32.2 µM
N[C@@H]1CONC1=O [SEROMYCIN]	> 150 µM	110 µM	98.8 µM	91.5 µM
Cc1c(O)c(O)cc2c1CC=C1[C@@]2(C)CC[C@@]2(C)[C@@H]3C[C@](C)(C(=O)O)CC[C@]3(C)CC[C@]12C [DIHYDROCELASTROL]	< 9.85 µM	< 9.85 µM	< 9.85 µM	< 9.85 µM
CC[C@H]1OC(=O)[C@H](C)[C@@H](O[C@H]2C[C@@](C)(OC)[C@@H](O)[C@H](C)O2)[C@H](C)[C@@H](O[C@@H]2O[C@H](C)C[C@H](N(C)C)[C@H]2O)[C@](C)(O)C[C@@H](C)/C(=N\OCOCCOC)[C@H](C)[C@@H](O)[C@]1(C)O [RULIDE]	< 9.85 µM	< 9.85 µM	< 9.85 µM	< 9.85 µM
CCCCCCCCCCCCC[N+](C)(C)Cc1ccccc1 [ROCCAL]	< 9.85 µM	< 9.85 µM	< 9.85 µM	< 9.85 µM
O=c1[nH]cc(F)c(=O)[nH]1 [CARAC]	< 9.85 µM	< 9.85 µM	< 9.85 µM	< 9.85 µM
Oc1c(I)cc(Cl)c2cccnc12 [VIOFORM]	15 µM	14.9 µM	< 9.85 µM	< 9.85 µM
C/C=C(/C(=C/C)c1ccc(O)cc1)c1ccc(O)cc1 [ESTRAGUARD]	30.7 µM	52.9 µM	18.5 µM	< 9.85 µM
O=[N+]([O-])c1ccc2c(c1)S(=O)(=O)C=C2 [Stattic]	35.8 µM and 35.3 µM	35.4 µM and 56.2 µM	25.7 µM and 16.6 µM	13.6 µM and < 9.85 µM

Compound	IC50 ([1]; fluorescent label: DsRed)	IC50 ([1]; fluorescent label: GFP)	IC50 ([2]; fluorescent label: DsRed)	IC50 ([2]; fluorescent label: GFP)
OCc1ccc(-c2ccc(-c3ccc(CO)s3)o2)s1	22.4 µM	33.5 µM	< 9.85 µM	< 9.85 µM
C=C[C@](C)(O)CC[C@@H]1[C@@]2(C)CCCC(C)(C)[C@@H]2CC[C@@]1(C)O [SCLAREOL]	31.4 µM	28.9 µM	< 9.85 µM	< 9.85 µM
O=C(O)c1ccc(Nc2ncc3c(n2)-c2ccc(Cl)cc2C(c2c(F)cccc2F)=NC3)cc1 [MLN8054]	13.7 µM	24.9 µM	3.89 µM	2.45 µM
O=c1[nH]cc(F)c(=O)[nH]1 [5-Fluorouracil]	< 9.85 µM	< 9.85 µM	< 9.85 µM	< 9.85 µM
C[C@H]1[C@H](C)CC[C@]2(C(=O)O)CC[C@]3(C)C(=CC[C@@H]4[C@@]5(C)C[C@@H](O)[C@H](O)[C@@](C)(CO)[C@@H]5CC[C@]43C)[C@H]12 [Asiatic acid]	54.9 µM and 27.7 µM	29.7 µM and 27.7 µM	17 µM and 28 µM	17.5 µM and 23.5 µM
NC(N)=NC(=O)c1nc(Cl)c(N2CCCCCC2)nc1N [5-(N,N-hexamethylene)amiloride]	90.9 µM	108 µM	46.2 µM	60.9 µM
CCCCCCCCCCCCCCCC[n+]1ccccc1 [CEPACOL]	< 9.85 µM	< 9.85 µM	< 9.85 µM	< 9.85 µM
CC(C)c1ccc2c(c1)CC[C@H]1[C@](C)(CN)CCC[C@]21C [18-AMINOABIETA-8,11,13-TRIENE SULFATE]	62.5 µM	79.2 µM	55.7 µM	55.8 µM
COc1ccc2c(c[n+](C)c3c4cc5c(cc4ccc23)OCO5)c1OC [Chelerythrine chloride]	36.7 µM	49.2 µM	15 µM	< 9.85 µM
COc1ccc2c(c1)CCC1C2CCC2(C)C(NCCCCCCN3C(=O)C=CC3=O)CCC12 (centres undefined)	> 150 µM	> 150 µM	46.3 µM	44.2 µM
Clc1ccc(CO/N=C(\Cn2ccnc2)c2ccc(Cl)cc2Cl)c(Cl)c1 [OXISTAT]	35.3 µM	43.3 µM	30.4 µM	17.3 µM
C[C@@H]1CN(c2c(F)c(N)c3c(=O)c(C(=O)O)cn(C4CC4)c3c2F)C[C@H](C)N1 [ZAGAM]	< 9.85 µM	< 9.85 µM	< 9.85 µM	< 9.85 µM
COc1cc(Cc2cnc(N)nc2N)cc(OC)c1OC [TRIMPEX]	< 9.85 µM	< 9.85 µM	< 9.85 µM	< 9.85 µM
C[C@H]1[C@H](C)CC[C@]2(C(=O)O)CC[C@]3(C)C(=CC[C@@H]4[C@@]5(C)C[C@@H](O)[C@H](O)[C@@](C)(CO)[C@@H]5CC[C@]43C)[C@H]12 [ASIATIC ACID]	109 µM	> 150 µM	123 µM	115 µM
CO[C@H]1/C=C/O[C@@]2(C)Oc3c(C)c(O)c4c(O)c(c5c(nc6cc(C)ccn65)c4c3C2=O)NC(=O)/C(C)=C\C=C\[C@H](C)[C@H](O)[C@@H](C)[C@@H](O)[C@@H](C)[C@H](OC(C)=O)[C@@H]1C [Rifaximin (Xifaxan)]	< 0.498 µM	< 0.498 µM	< 0.498 µM	< 0.498 µM
CS(=O)(=O)c1ccc([C@@H](O)[C@@H](CF)NC(=O)C(Cl)Cl)cc1 [NUFLOR]	< 9.85 µM	< 9.85 µM	< 9.85 µM	< 9.85 µM
Cc1cc(CC(C)CC(C)(C)C)n(O)c(=O)c1 (centres undefined) [OCTOPIROX]	120 µM	106 µM	89.5 µM	70 µM
CC(C)(C)c1ccc(C(=O)CCCN2CCC(OC(c3ccccc3)c3ccccc3)CC2)cc1 [Ebastine]	16.4 µM	15.3 µM	< 9.85 µM	< 9.85 µM
Clc1ccccc1C(c1ccccc1)(c1ccccc1)n1ccnc1 [Clotrimazole]	16.1 µM	15.8 µM	< 9.85 µM	< 9.85 µM
